Source: publication PMC10218109, “Old Drug, New Delivery Strategy: MMAE Repackaged” (International Journal of Molecular Sciences, 2023)

How the values were obtained:
[1] = molecular target: T1, prostate specific membrane antigen (PSMA) (Homo sapiens, UniProt Q04609); assay: competitive radioligand binding on PSMA-positive LNCaP cells vs […]Ga-PSMA-10; type: cell-based
T1 construct: gene FOLH1

[2] = molecular target: T1, prostate specific membrane antigen (PSMA); assay: competitive radioligand binding on PSMA-positive LNCaP cells (reference ligand); type: cell-based

T1 sequence (Q04609 whole entry): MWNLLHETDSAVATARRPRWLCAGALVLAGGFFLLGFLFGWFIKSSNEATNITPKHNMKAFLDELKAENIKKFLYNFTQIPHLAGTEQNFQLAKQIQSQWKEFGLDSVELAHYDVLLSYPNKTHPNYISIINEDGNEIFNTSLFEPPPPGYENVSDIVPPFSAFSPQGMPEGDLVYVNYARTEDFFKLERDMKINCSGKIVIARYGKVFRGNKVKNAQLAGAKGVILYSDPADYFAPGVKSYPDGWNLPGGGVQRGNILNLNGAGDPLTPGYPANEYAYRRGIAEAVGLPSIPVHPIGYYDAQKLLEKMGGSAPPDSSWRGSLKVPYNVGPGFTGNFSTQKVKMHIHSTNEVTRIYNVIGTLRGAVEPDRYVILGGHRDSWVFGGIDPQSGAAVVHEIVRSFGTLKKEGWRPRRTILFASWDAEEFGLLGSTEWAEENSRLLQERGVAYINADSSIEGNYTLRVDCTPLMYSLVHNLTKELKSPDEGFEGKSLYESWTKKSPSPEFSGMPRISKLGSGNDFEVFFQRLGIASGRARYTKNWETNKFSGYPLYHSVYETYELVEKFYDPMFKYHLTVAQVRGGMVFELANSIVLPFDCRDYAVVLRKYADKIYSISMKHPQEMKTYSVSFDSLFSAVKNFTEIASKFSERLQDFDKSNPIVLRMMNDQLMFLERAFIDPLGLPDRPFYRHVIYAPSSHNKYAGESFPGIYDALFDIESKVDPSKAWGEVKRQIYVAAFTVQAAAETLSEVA

## NC[C@H]1CC[C@H](C(=O)N[C@@H](Cc2ccc3ccccc3c2)C(=O)NCCCC[C@H](NC(=O)N[C@@H](CCC(=O)O)C(=O)O)C(=O)O)CC1 [KuE-617]
[1]
  IC50: 21.5 ± 1.9 nM

## O=C(O)CCc1ccc(O)c(CN(CCN(CC(=O)O)Cc2cc(CCC(=O)NCCCCCC(=O)NCCCC[C@H](NC(=O)N[C@@H](CCC(=O)O)C(=O)O)C(=O)O)ccc2O)CC(=O)O)c1 [PSMA-11]
[2]
  IC50: 17.4 ± 1.6 nM

## O=C(O)CC[C@H](NC(=O)N[C@@H](CCCCNC(=O)[C@H](Cc1ccc2ccccc2c1)NC(=O)[C@H]1CC[C@H](CNC(=O)CN2CCN(CC(=O)O)CCN(CC(=O)O)CCN(CC(=O)O)CC2)CC1)C(=O)O)C(=O)O [PSMA-617]
[2]
  IC50: 15.1 ± 3.8 nM
